# Target: DCN1-UBC12 interaction (Homo sapiens (Human), UniProt Q96GG9)
# Experiment: biochemical
# Type: binding
# Settings: Table 4, commercial compounds; read-out: TR-FRET IC50
# DCN1-UBC12 interaction, sequence (Q96GG9 60-248 limits assumed): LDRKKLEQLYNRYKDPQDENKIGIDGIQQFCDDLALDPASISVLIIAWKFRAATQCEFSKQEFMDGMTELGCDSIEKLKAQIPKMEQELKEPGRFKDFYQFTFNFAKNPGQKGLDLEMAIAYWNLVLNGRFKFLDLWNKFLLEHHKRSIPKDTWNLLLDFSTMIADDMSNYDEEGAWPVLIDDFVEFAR
row,Compound,IC50 [µM]
1,Cc1ccc(C(=O)N2CCC(C(=O)Nc3ccc(C)c(C)c3)CC2)cc1 [C25],> 67.6
2,O=C(Nc1ccc(Cl)c(Cl)c1)C1CCN(C(=O)c2ccco2)CC1 [C40],> 67.6
3,COc1cc(C(=O)N2CCC(C(=O)Nc3ccc(Cl)cc3)CC2)cc(OC)c1OC [C23],> 67.6
4,COCC(=O)N1CCC(C(=O)Nc2ccc(-c3cc4ccccc4[nH]3)cc2)CC1 [C46],> 67.6
5,Cc1cccc(NC(=O)C2CCN(C(=O)c3cccc4ccccc34)CC2)c1 [C63],> 67.6
6,COc1ccc(C(=O)N2CCC(C(=O)Nc3cccc([N+](=O)[O-])c3)CC2)c2ccccc12 [C60],> 67.6
7,O=C(Nc1ccc(F)cc1)C1CCN(C(=O)c2ccco2)CC1 [C31],> 67.6
8,Cc1cc(NC(=O)C2CCN(C(=O)c3ccco3)CC2)ccc1Br [C38],> 67.6
9,CCOc1ccccc1NC(=O)C1CCN(C(=O)c2ccc(OC)cc2)CC1 [C47],> 67.6

# Same assay, conditions: Table 6, commercial compounds; read-out: TR-FRET IC50
row,Compound,IC50 [µM]
1,COCCN1CCN(C(=O)c2cnn(-c3nccc(-c4cccs4)n3)c2C2CC2)CC1 [E13],28.8
2,CCOC(=O)CCNC(=O)c1cnn(-c2ncc(C)c(-c3cccs3)n2)c1C [E56],> 67.6
3,CCN(CC)CCN(CC)C(=O)c1cnn(-c2nccc(-c3cccs3)n2)c1C(C)C [E5],17.4
4,CCN(CC)CCN(CC)C(=O)c1cnn(-c2nccc(-c3cccs3)n2)c1C [E3],7.77
5,CCCCN(C)C(=O)c1cnn(-c2ncc(C)c(-c3cccs3)n2)c1C [E42],> 67.6
6,CCCN1CCN(C(=O)c2cnn(-c3nccc(-c4cccs4)n3)c2C)CC1 [E60],> 68
7,CCOC(=O)N1CCN(C(=O)c2cnn(-c3ncc(C)c(-c4cccs4)n3)c2C)CC1 [E12],28.3
8,CCN(CC)CCN(CC)C(=O)c1cnn(-c2nccc(-c3cccs3)n2)c1COC [E22],54.9

# Same assay, conditions: Table 7, commercial compounds; read-out: TR-FRET IC50
row,Compound,IC50 [µM]
1,COc1ccc(C2c3c(C)nn(C)c3NC(=O)C2NC(=O)c2ccccc2)cc1OC (stereo not drawn) [F29],> 67.6
2,Cc1nn(C)c2c1C(c1cccc(F)c1)C(NC(=O)c1ccc(Cl)cc1)C(=O)N2 (stereo not drawn) [F10],> 67.6
3,Cc1nn(-c2ccccc2)c2c1C(c1ccc(C(F)(F)F)cc1)C(NC(=O)c1ccccc1)C(=O)N2 (stereo not drawn) [F19],> 67.6
4,Cc1nn(C)c2c1C(c1ccc(C(C)(C)C)cc1)C(NC(=O)c1ccccc1)C(=O)N2 (stereo not drawn) [F11],> 67.6
5,CCOc1ccc(C2c3c(C)nn(C)c3NC(=O)C2NC(=O)c2cccc(C)c2)cc1OC (stereo not drawn) [F18],> 67.6

# Same assay, conditions: read-out: TR-FRET IC50
row,Compound,IC50 [µM]
1,CCCC(C)N1CCC(N(Cc2ccccc2)C(=O)Nc2ccc(NC(C)=O)cc2)CC1 (stereo not drawn) [A291],> 77.1
2,CCOc1ccccc1NC(=O)N(Cc1ccc(C)o1)C1CCN(Cc2ccccc2)CC1 [B92],> 67.6
3,O=C(Nc1cc(F)cc(C(F)(F)F)c1)N(Cc1ccccc1)C1CCN(Cc2cc(F)c(F)c(F)c2)CC1 [A206],> 20.9
4,CCCC(C)N1CCC(N(Cc2ccccc2)C(=O)Nc2cc(F)ccc2Cl)CC1 (stereo not drawn) [A169],11
5,CCCC(C)N1CCC(N(Cc2ccccc2)C(=O)Nc2ccc(F)c(S(F)(F)(F)(F)F)c2)CC1 (stereo not drawn) [A54],0.295
6,CN(C)c1ncncc1NC(=O)NC1CCN(Cc2ccc(F)cc2)CC1 [B109],> 72.8
7,"1-Benzyl-1-(1-(3,3-Dimethylbutyl)Piperidin-4-yl)-3-(3-(Trifluoromethyl)Phenyl)Urea [A298]",> 85
8,C=CS(=O)(=O)NCc1cccc(CN(C(=O)Nc2cccc(C(F)(F)F)c2)C2CCN(C(C)CCC)CC2)c1 (stereo not drawn) [drawing 849],< 0.01
9,O=C(Nc1cccc(F)c1)NC1CCN(Cc2ccccc2)CC1 [B64],> 67.6
10,CC(=O)N1CCC(N(C(=O)Nc2cccc(C(F)(F)F)c2)C(C)C)CC1 [B65],> 67.6
11,CCCC(C)N1CCC(N(Cc2ccccc2)C(=O)Nc2ccc(OC)cc2F)CC1 (stereo not drawn) [A290],> 74
12,O=C(CN1CCN(Cc2ccccc2)CC1)Nc1cc(C(F)(F)F)ccc1Cl [B113],> 74
13,CCCc1ccc(NC(=O)N(Cc2ccccc2)C2CCN(C(C)CCC)CC2)cc1 (stereo not drawn) [A66],0.47
14,CCCC(C)N1CCC(N(Cc2ccccc2)C(=O)Nc2cccc(F)c2Cl)CC1 (stereo not drawn) [A168],10.6
15,CCCC(C)N1CCC(N(Cc2ccccc2)C(=O)Nc2cccc(S(F)(F)(F)(F)F)c2)CC1 (stereo not drawn) [A25],0.155
16,CCCCN1CCC(C(Cc2ccccc2)C(=O)Nc2cccc(C(F)(F)F)c2)CC1 (stereo not drawn) [A156],7.11
17,CCCCN1CCC(N(Cc2ccc3c(c2)OCO3)C(=O)Nc2ccc(F)c(C(F)(F)F)c2)CC1 [A114],2.35
18,O=C(c1cccc(F)c1)N1CCC(c2nc3ccccc3s2)CC1 [D12],31.4
19,COc1cc(CN2CCC(NC(=O)Nc3cccc(C)c3)CC2)cc(OC)c1OC [B12],29.3
20,O=C(c1ccc(F)cc1F)N1CCC(c2nc3ccccc3s2)CC1 [D11],30.6
21,C#CCCCN1CCC(N(Cc2ccccc2NC(=O)CCl)C(=O)Nc2ccc(Cl)c(Cl)c2)CC1 [A252],> 6.46
22,CCCC(C)N1CCC(N(Cc2ccccc2)C(=O)Nc2ccc(Oc3ccc(Cl)cc3)cc2)CC1 (stereo not drawn) [A22],0.131

row,Compound,IC50 [µM]
1,COc1cc(CN2CCC(NC(=O)Nc3ccccc3)CC2)cc(OC)c1OC [B45],> 65.5
2,CCCC(C)N1CCC(N(Cc2ccccc2)C(=O)Nc2ccc(SC(F)(F)F)cc2)CC1 (stereo not drawn) [A14],0.0853
3,CCCC(C)N1CCC(N(Cc2ccccc2)C(=O)Nc2ccc(S(=O)(=O)NC(C)=O)cc2)CC1 (stereo not drawn) [A283],> 72.1
4,"CCCCN(C(=O)Nc1cccc(C(F)(F)F)c1)C1CCN(CCC)CC1 [A96, 1-Butyl-1-(1-Propylpiperidin-4-yl)-3-(3-(Trifluoromethyl)Phenyl)Urea]",1.33
5,CC1CN(Cc2ccccc2)CCC1N(C)C(=O)Nc1cn[nH]c1 (stereo not drawn) [B24],> 15.2
6,CCCC(C)N1CCC(N(Cc2ccccc2)C(=O)Nc2ccccc2N2CCOCC2)CC1 (stereo not drawn) [A243],> 52.8
7,O=C(Nc1cc(F)cc(C(F)(F)F)c1)N(Cc1ccccc1)C1CCN(Cc2ccc(N3CCCC3)cc2)CC1 [A201],> 19.1
8,COc1ccc(CN(C(=O)Nc2ccccc2F)C2CCN(C(C)=O)CC2)cc1 [B86],> 67.6
9,CCCC1CCC(N(Cc2ccccc2)C(=O)Nc2cccc(C(F)(F)F)c2)CC1 (stereo not drawn) [A232],> 38.7
10,CCCC(C)N1CCC(N(Cc2cccnc2)C(=O)Nc2ccc(F)c(C(F)(F)F)c2)CC1 (stereo not drawn) [A55],0.303
11,CC(c1ccc(Cl)cc1)N1CCC(N(Cc2ccccc2)C(=O)Nc2cc(F)cc(C(F)(F)F)c2)CC1 (stereo not drawn) [A216],> 23.8
12,O=C(Nc1cc(F)cc(C(F)(F)F)c1)N(Cc1ccccc1)C1CCN(Cc2cccc(Oc3ccccc3)c2)CC1 [A217],> 23.9
13,O=C(Nc1cc(F)cc(C(F)(F)F)c1)N(Cc1ccccc1)C1CCN(Cc2ccc(Cc3ccccc3)cc2)CC1 [A211],> 21.8
14,CCCC(C)N1CCC(N(Cc2ccccc2)C(=O)Nc2c(F)cc(F)cc2F)CC1 (stereo not drawn) [A272],> 67.5
15,CCCC(C)N1CCC(N(Cc2ccccc2)C(=O)Nc2ccccc2C(N)=O)CC1 (stereo not drawn) [A257],> 61.8
16,O=C(Nc1cc(F)cc(C(F)(F)F)c1)N(Cc1ccccc1)C1CCN(C/C=C/c2ccccc2)CC1 [A143],4.27
17,CCCC(C)N1CCC(N(Cc2ccccc2)C(=O)Nc2ccccc2OC(F)(F)F)CC1 (stereo not drawn) [A191],44.9
18,C=CC(=O)NCCCN(C(=O)Nc1cccc(C(F)(F)F)c1)C1CCN(C(C)CCC)CC1 (stereo not drawn) [drawing 834],3.33
19,"O=C(Nc1cccc(C(F)(F)F)c1)N(Cc1ccccc1)C1CCNCC1 [A261, 1-Benzyl-1-(Piperidin-4-yl)-3-(3-(Trifluoromethyl)Phenyl)Urea]",> 63.3
20,O=C(Nc1cccc(C(F)(F)F)c1)N1CCN(Cc2cccnc2)CC1 [B116],> 74.8
21,O=C(CN1CCN(c2ccccc2)CC1)Nc1cccc(C(F)(F)F)c1 [B37],> 60.6
22,CCCCN1CCC(N(Cc2ccccc2)C(=O)Nc2ccc(F)c(C(F)(F)F)c2)CC1 [A26],0.163

row,Compound,IC50 [µM]
1,Cc1ccc(CN(C(=O)Nc2cc(F)ccc2F)C2CCN(Cc3ccccc3)CC2)o1 [B93],> 67.6
2,CCCC(C)N1CCC(N(Cc2ccccc2)C(=O)Nc2cc(F)cc(Cl)c2)CC1 (stereo not drawn) [A67],0.482
3,CCCCN1CCC(N(Cc2ccccc2)C(=O)Nc2cccc(C)c2)CC1 [A95],1.32
4,"O=C(Nc1cccc(C(F)(F)F)c1)NC1CCN(Cc2ccccc2Cl)CC1 [A292, 1-(1-(2-Chlorobenzyl)Piperidin-4-yl)-3-(3-(Trifluoromethyl)Phenyl)Urea]",> 77.3
5,CCCCN1CCC(N(Cc2ccccc2)C(=O)Nc2ccc(F)c(Cl)c2)CC1 [A89],1.09
6,O=C(c1ccc(F)cc1Cl)N1CCC(c2nc3ccccc3s2)CC1 [D5],18.2
7,C#CCCCN1CCC(N(Cc2ccccc2NC(=O)C=C)C(=O)Nc2ccc(Cl)c(Cl)c2)CC1 [A304],> 9.74
8,CCc1ccc(NC(=O)NC2CCN(C(C)C)CC2)cc1 [B62],> 67.6
9,N#Cc1cccc(CN2CCC(N(Cc3ccccc3)C(=O)Nc3cc(F)cc(C(F)(F)F)c3)CC2)c1 [A230],> 28.7
10,CN(C)c1ccc(CN2CCC(N(Cc3ccccc3)C(=O)Nc3cc(F)cc(C(F)(F)F)c3)CC2)c2ccccc12 [A204],> 20.2
11,Cc1nc(NC(=O)NC2CCN(Cc3ccccc3)CC2)nn1C [B25],> 16.3
12,CN1CCC(NC(=O)Nc2cccc(C(F)(F)F)c2)CC1 [B100],> 68.1
13,"O=C(Nc1cccc(-n2cccc2)c1)NC1CCN(Cc2ccccc2)CC1 [A282, 1-(3-(1H-Pyrrol-1-yl)Phenyl)-3-(1-Benzylpiperidin-4-yl)Urea]",> 71.3
14,CCCC(C)N1CCC(N(Cc2ccccc2)C(=O)Nc2ccc(Cl)c(C(F)(F)F)c2)CC1 (stereo not drawn) [A64],0.414
15,CCCC(C)N1CCC(N(Cc2ccccc2)C(=O)Nc2cccc3cccnc23)CC1 (stereo not drawn) [A139],4.13
16,O=C(Nc1ccc(CN2CCOCC2)cc1)Nc1cccc(C(F)(F)F)c1 [B108],> 72.8
17,O=C(NC1CCN(Cc2ccc(F)cc2)CC1)C(F)(F)F [A305],> 92.7
18,CCCCN1C(C)CC(N(Cc2ccccc2)C(=O)Nc2cccc(C(F)(F)F)c2)CC1C (stereo not drawn) [A71],0.589
19,O=C(Nc1cc(F)cc(C(F)(F)F)c1)N(Cc1ccccc1)C1CCN(Cc2cncn2Cc2ccccc2)CC1 [A208],> 21.1
20,Cc1ccc(CN(C(=O)Nc2ccccc2Br)C2CCN(Cc3ccccc3)CC2)o1 [B91],> 67.6
21,CCCCN(C(=O)Nc1cc(F)cc(C(F)(F)F)c1)C1CCN(C(C)CCC)CC1 (stereo not drawn) [A84],0.917

# Reference: patent US11116757B2 (priority 2015, dated 2021)
